Assay results taken from US20130252930A1 (BIOMARIN PHARMACEUTICAL INC., priority 2010, published 2013).
Where two headings read alike, the source gives them in different places.

What was measured:
[1] = molecular target: T1, Cyp21 enzyme (Human HEK 293-Cyp21 stable transfected cells) (Homo sapiens, UniProt P08686); test: CYP21-HEK293 enzymatic assay (% inhibition at 100 nM) (Biological Example 10); assay type: cell-based; conditions: HEK 293-Cyp21 cells
T1 construct: expressed in transfected cells
T1 sequence (P08686 1-495): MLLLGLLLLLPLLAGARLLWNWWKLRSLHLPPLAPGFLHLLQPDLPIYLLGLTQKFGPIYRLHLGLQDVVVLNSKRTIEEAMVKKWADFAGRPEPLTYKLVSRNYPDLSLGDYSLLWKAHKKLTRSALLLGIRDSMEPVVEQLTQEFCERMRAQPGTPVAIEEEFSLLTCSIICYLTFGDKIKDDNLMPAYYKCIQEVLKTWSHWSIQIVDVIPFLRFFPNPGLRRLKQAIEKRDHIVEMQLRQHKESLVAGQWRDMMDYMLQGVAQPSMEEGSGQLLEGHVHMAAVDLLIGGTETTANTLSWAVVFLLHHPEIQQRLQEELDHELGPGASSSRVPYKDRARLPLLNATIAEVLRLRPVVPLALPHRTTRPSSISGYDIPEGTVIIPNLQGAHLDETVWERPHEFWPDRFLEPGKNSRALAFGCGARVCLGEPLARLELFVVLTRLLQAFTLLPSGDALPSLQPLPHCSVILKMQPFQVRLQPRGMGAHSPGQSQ
Summary of the method: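 Percent inhibition at 100 nM: DOC in conditioned medium was read by ELISA at 450 nm and quantified from a standard curve. Stably transfected human Cyp21 HEK293 cells were pretreated 5 h with compound or 1% methanol mock, then given 10 μM final progesterone for 20 h at 37 °C.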

[2] = Rat liver microsome stability assay (Biological Example 8a); conditions: liver microsomes, pH 7.4
[3] = molecular target: T2, CYP17 (human testicular microsome) (Homo sapiens, UniProt P05093); test: CYP17 enzymatic assay (% inhibition at 10 nM), version 1 (Biological Example 5); assay type: biochemical; conditions: 10 nM compound, DHEA by ELISA, read-out: Biological Example No. 5: CYP17 percent inhibition at 10 nM (version 1)
T2 construct: using microsomal fraction from human testis (Celsis Cat #S00110) as the enzyme source; tissue Celsis S00110; host or cells: human testis microsomal fraction
T2 sequence (P05093 1-508): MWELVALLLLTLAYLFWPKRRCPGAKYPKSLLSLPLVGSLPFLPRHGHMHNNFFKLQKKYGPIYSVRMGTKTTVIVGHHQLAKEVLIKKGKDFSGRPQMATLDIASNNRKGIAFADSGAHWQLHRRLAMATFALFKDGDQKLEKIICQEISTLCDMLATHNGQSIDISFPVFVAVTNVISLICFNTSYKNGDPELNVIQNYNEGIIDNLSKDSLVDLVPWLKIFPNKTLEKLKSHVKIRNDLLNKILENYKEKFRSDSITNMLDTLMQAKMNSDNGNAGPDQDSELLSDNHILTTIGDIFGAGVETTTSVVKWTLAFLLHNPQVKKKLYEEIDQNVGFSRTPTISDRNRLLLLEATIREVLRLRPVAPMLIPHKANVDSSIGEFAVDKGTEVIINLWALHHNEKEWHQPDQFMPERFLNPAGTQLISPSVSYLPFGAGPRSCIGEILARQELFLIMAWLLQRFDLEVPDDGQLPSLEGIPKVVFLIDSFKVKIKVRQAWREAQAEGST

[4] = molecular target: T2, CYP17 (human testicular microsome); test: CYP17 enzymatic assay (IC50) (Biological Example 4); assay type: biochemical; conditions: human testicular microsome, DHEA by ELISA; read-out: Biological Example No. 4: CYP17 enzymatic assay IC50
[5] = Human liver microsome stability assay (Biological Example 8b); conditions: liver microsomes, pH 7.4
[6] = tested on: rat Cyp11B enzyme (rat adrenal mitochondria); test: CYP11B enzymatic assay (% inhibition at 100 nM) (Biological Example 9); assay type: biochemical; conditions: for Biological Example No. 9: CYP11B percent inhibition at 100 nM: 100 nM compound, cortisol by ELISA
Summary of the method: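 Sprague Dawley rat adrenal mitochondria were incubated with compound at 100 nM, 0.5 mM NADPH and 0.1 μM 11-deoxycortisol (pH 7.4 Tris buffer) for 60 min at 37 °C. Cortisol was measured by ELISA and corrected by subtracting the no-NADPH background. % inhibition is relative to the no-compound reaction.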

in vitro = conditions: human, microsomes, pH 7.4
[7] = molecular target: T2, CYP17 (human testicular microsome); test: CYP17 enzymatic assay (% inhibition at 1 nM) (Biological Example 12); assay type: biochemical
[8] = 100 nM compound, read-out: Biological Example No. 10: CYP21-HEK293 percent inhibition at 100 nM
[9] = compound at 1 nM, read-out: CYP17 enzymatic assay % inhibition at 1 nM (Biological Example No. 12)

inhibition at 0.1 µM [1, 8] [%]	half-life at 1 μM [2] [min]	inhibition at 0.01 µM [3] [%]	Structure (SMILES)	half-life at 1 μM (in vitro) [min]	inhibition at 0.001 µM [7, 9] [%]	other results
≥ 30	10 to 60	50 to 80	Cc1cncc(C2=CC[C@H]3[C@@H]4CCC5=CC(=O)NCC[C@]5(C)[C@H]4CC[C@]23C)c1 [Compound 51]			IC50 [4]: < 11 nM
< 30	1 to 10	> 80	C[C@]12CCNC(=O)C=C1CC[C@@H]1[C@@H]2CC[C@]2(C)C(n3ccnn3)=CC[C@@H]12 [Compound 59]			half-life at 1 μM [5]: > 50 min; Biological Example No. 9: CYP11B percent inhibition at 100 nM [6]: na (“na” means the compound was not active under the conditions tested)
≥ 30	1 to 10	50 to 80	C[C@]12CCNC(=O)C=C1CC[C@@H]1[C@@H]2CC[C@]2(C)C(c3cncnc3)=CC[C@@H]12 [Compound 60, (5aR,7aS)-5a,7a-dimethyl-8-(pyrimidin-5-yl)-4,5,5a,5b,6,7,7a,10,10a,10b,11,12-dodecahydrocyclopenta[5,6]naphtho[2,1-c]azepin-3(2H)-one]			
≥ 30	1 to 10	> 80	C[C@]12CCNC(=O)C=C1CC[C@@H]1[C@@H]2CC[C@]2(C)C(c3cnccn3)=CC[C@@H]12 [Compound 61, (5aR,7aS)-5a,7a-dimethyl-8-(pyrazin-2-yl)-4,5,5a,5b,6,7,7a,10,10a,10b,11,12-dodecahydrocyclopenta[5,6]naphtho[2,1-c]azepin-3(2H)-one]			
< 30	10 to 60	> 80	CN1CC[C@@]2(C)C(=CC1=O)CC[C@@H]1[C@@H]2CC[C@]2(C)C(n3ccnc3)=CC[C@@H]12 [Compound 146]			half-life at 1 μM [5]: 1 to 50 min; Biological Example No. 9: CYP11B percent inhibition at 100 nM [6]: U (U means the compound had a percent inhibition of greater than or equal to 32%); IC50 [4]: < 11 nM
< 30	1 to 10	> 80	C[C@]12CC[C@H]3[C@@H](CC[C@H]4CC(=O)NCC[C@@]43C)C1=CC=C2c1cccnc1 [Compound 165, (5aS,5bS,7aS,10bR,12aS)-5a,7a-dimethyl-8-(pyridin-3-yl)-3,4,5,5a,5b,6,7,7a,10b,11,12,12a-dodecahydrocyclopenta[5,6]naphtho[1,2-d]azepin-2(1H)-one]			half-life at 1 μM [5]: 1 to 50 min; Biological Example No. 9: CYP11B percent inhibition at 100 nM [6]: na (“na” means the compound was not active under the conditions tested); IC50 [4]: < 11 nM
			COC(=O)N[C@@H]1CC[C@@]2(C)C(CCC3C2CC[C@]2(C)C(c4cccnc4)=CCC32)C1 (stereo partly drawn) [Compound 219, methyl ((3R,10S,13S)-10,13-dimethyl-17-(pyridin-3-yl)-2,3,4,5,6,7,8,9,10,11,12,13,14,15-tetradecahydro-1H-cyclopenta[a]phenanthren-3-yl)carbamate]	1 to 50	> 50	
			COc1cncc(C2=CCC3C4CCC5C[C@H](NC(C)=O)CC[C@]5(C)C4CC[C@]23C)c1 (stereo partly drawn) [Compound 222, N-((3R,10S,13S)-17-(5-methoxypyridin-3-yl)-10,13-dimethyl-2,3,4,5,6,7,8,9,10,11,12,13,14,15-tetradecahydro-1H-cyclopenta[a]phenanthren-3-yl)acetamide]	1 to 50	> 50	
			CC(=O)N[C@@H]1CC[C@@]2(C)C(=CC[C@@H]3[C@@H]2CC[C@]2(C)C(c4cncc(C(F)(F)F)c4)=CC[C@@H]32)C1 [Compound 231, N-((3R,10R,13S)-10,13-dimethyl-17-(5-(trifluoromethyl)pyridin-3-yl)-2,3,4,7,8,9,10,11,12,13,14,15-dodecahydro-1H-cyclopenta[a]phenanthren-3-yl)acetamide]	1 to 50	10 to 50	
			CCNC(=O)N[C@@H]1CC[C@@]2(C)C(=CC[C@@H]3[C@@H]2CC[C@]2(C)C(c4cccnc4)=CC[C@@H]32)C1 [Compound 232, 1-((3R,10R,13S)-10,13-dimethyl-17-(pyridin-3-yl)-2,3,4,7,8,9,10,11,12,13,14,15-dodecahydro-1H-cyclopenta[a]phenanthren-3-yl)-3-ethylurea]	1 to 50	> 50	
			CCNC(=O)NC1CC[C@@]2(C)C(=CCC3C2CC[C@]2(C)C(n4ccnc4)=CCC32)C1 (stereo partly drawn) [Compound 242, 1-((10R,13S)-17-(1H-imidazol-1-yl)-10,13-dimethyl-2,3,4,7,8,9,10,11,12,13,14,15-dodecahydro-1H-cyclopenta[a]phenanthren-3-yl)-3-ethylurea]	1 to 50	> 50	inhibition at 0.1 µM ([1]; compound at 100 nM, read-out: CYP21-HEK293 enzymatic assay % inhibition at 100 nM (Biological Example No. 10)): < 30%; CYP11B enzymatic assay % inhibition at 100 nM (Biological Example No. 9) ([6]; compound at 100 nM): U (U means the compound had a percent inhibition of greater than or equal to 32%)
			CC(=O)N[C@@H]1CC[C@@]2(C)C(CC[C@H]3C4=CC=C(c5cccnc5)[C@@]4(C)CC[C@@H]32)C1 (stereo partly drawn) [Compound 244, N-((3R,10S,13S)-10,13-dimethyl-17-(pyridin-3-yl)-2,3,4,5,6,7,8,9,10,11,12,13-dodecahydro-1H-cyclopenta[a]phenanthren-3-yl)acetamide]	1 to 50	> 50	
			C[C@@]1(O)CC[C@@]2(C)C(=CCC3C2CC[C@]2(C)C(c4cncc(F)c4)=CCC32)C1 (stereo partly drawn) [Compound 269, (3R,10R,13S)-17-(5-fluoropyridin-3-yl)-3,10,13-trimethyl-2,3,4,7,8,9,10,11,12,13,14,15-dodecahydro-1H-cyclopenta[a]phenanthren-3-ol]	> 50		inhibition at 0.001 µM ([7]; test compound at 1 nM, read-out: CYP17 enzymatic assay percent inhibition at 1 nM (Biological Example No. 12)): > 50%

Structure (SMILES)	inhibition at 0.1 µM [1, 8] [%]	half-life at 1 μM [2] [min]	inhibition at 0.01 µM [3] [%]	half-life at 1 μM (in vitro) [min]	inhibition at 0.001 µM [7, 9] [%]	other results
C[C@]12CC[C@H]3[C@@H](CCC4=CC(=O)CC[C@@]43C)C1=CC=C2n1ccnc1 [Compound 75, (10R,13S)-17-(1H-imidazol-1-yl)-10,13-dimethyl-6,7,8,9,10,11,12,13-octahydro-1H-cyclopenta[a]phenanthren-3(2H)-one]	< 30	10 to 60	> 80			half-life at 1 μM [5]: > 50 min; Biological Example No. 9: CYP11B percent inhibition at 100 nM [6]: U (U means the compound had a percent inhibition of greater than or equal to 32%); IC50 [4]: < 11 nM
COc1cncc(C2=CC=C3[C@@H]4CCC5=CC(=O)CC[C@]5(C)[C@H]4CC[C@]23C)c1 [Compound 83, (10R,13S)-17-(5-methoxypyridin-3-yl)-10,13-dimethyl-6,7,8,9,10,11,12,13-octahydro-1H-cyclopenta[a]phenanthren-3(2H)-one]	≥ 30		50 to 80	1 to 50		
